This is an account of results in ChEMBL document CHEMBL1131152, “In vitro and in vivo activities of oligodeoxynucleotide-based thrombin inhibitors containing neutral formacetal linkages” (J Med Chem, 1998).

This test deals with Prothrombin (Homo sapiens) (UniProt P00734). In words: Relative prothrombin time was determined as the activity of the test ODN (oligodeoxynucleotide) relative to that of GS-522.
The compound `Cc1cn([C@H]2C[C@H](OCOC[C@H]3O[C@@H](n4cc(C)c(=O)[nH]c4=O)C[C@@H]3OP(=O)(O)OC[C@H]3O[C@@H](n4cnc5c(=O)nc(N)[nH]c54)C[C@@H]3OP(=O)(O)OC[C@H]3O[C@@H](n4cnc5c(=O)[nH]c(=N)[nH]c54)C[C@@H]3OCOC[C@H]3O[C@@H](n4cc(C)c(=O)[nH]c4=O)C[C@@H]3OP(=O)(O)OC[C@H]3O[C@@H](n4cnc5c(=O)nc(N)[nH]c54)C[C@@H]3OCOC[C@H]3O[C@@H](n4cc(C)c(=O)[nH]c4=O)C[C@@H]3OP(=O)(O)OC[C@H]3O[C@@H](n4cnc5c(=O)nc(N)[nH]c54)C[C@@H]3OP(=O)(O)OC[C@H]3O[C@@H](n4cnc5c(=O)[nH]c(=N)[nH]c54)C[C@@H]3OP(=O)(O)OC[C@H]3O[C@@H](n4cc(C)c(=O)[nH]c4=O)C[C@@H]3OCOC[C@H]3O[C@@H](n4cc(C)c(=O)[nH]c4=O)C[C@@H]3OP(=O)(O)OC[C@H]3O[C@@H](n4cnc5c(=O)[nH]c(=N)[nH]c54)C[C@@H]3OP(=O)(O)OC[C@H]3O[C@@H](n4cnc5c(=O)nc(N)[nH]c54)C[C@@H]3O)[C@@H](COP(=O)(O)O[C@H]3C[C@H](n4cnc5c(=O)[nH]c(=N)[nH]c54)O[C@@H]3COP(=O)(O)O[C@H]3C[C@H](n4cnc5c(=O)nc(N)[nH]c54)O[C@@H]3COP(=O)(O)O)O2)c(=O)[nH]c1=O` came in with a Relative PT of 0.8.
`Cc1cn([C@H]2C[C@H](OCOC[C@H]3O[C@@H](n4cnc5c(=O)[nH]c(=N)[nH]c54)C[C@@H]3OP(=O)(O)OC[C@H]3O[C@@H](n4cnc5c(=O)nc(N)[nH]c54)C[C@@H]3O)[C@@H](COP(=O)(O)O[C@H]3C[C@H](n4cc(C)c(=O)[nH]c4=O)O[C@@H]3COP(=O)(O)O[C@H]3C[C@H](n4cnc5c(=O)[nH]c(=N)[nH]c54)O[C@@H]3COP(=O)(O)O[C@H]3C[C@H](n4cnc5c(=O)nc(N)[nH]c54)O[C@@H]3COCO[C@H]3C[C@H](n4cc(C)c(=O)[nH]c4=O)O[C@@H]3COP(=O)(O)O[C@H]3C[C@H](n4cnc5c(=O)[nH]c(=N)[nH]c54)O[C@@H]3COP(=O)(O)O[C@H]3C[C@H](n4cc(C)c(=O)[nH]c4=O)O[C@@H]3COP(=O)(O)O[C@H]3C[C@H](n4cnc5c(=O)[nH]c(=N)[nH]c54)O[C@@H]3COP(=O)(O)O[C@H]3C[C@H](n4cnc5c(=O)nc(N)[nH]c54)O[C@@H]3COP(=O)(O)O[C@H]3C[C@H](n4cc(C)c(=O)[nH]c4=O)O[C@@H]3COP(=O)(O)O[C@H]3C[C@H](n4cc(C)c(=O)[nH]c4=O)O[C@@H]3COP(=O)(O)O[C@H]3C[C@H](n4cnc5c(=O)nc(N)[nH]c54)O[C@@H]3COP(=O)(O)O[C@H]3C[C@H](n4cnc5c(=O)[nH]c(=N)[nH]c54)O[C@@H]3COP(=O)(O)O)O2)c(=O)[nH]c1=O` gave a Relative PT of 0.4.
The result for `Cc1cn([C@H]2C[C@H](OP(=O)(O)OC[C@H]3O[C@@H](n4cnc5c(=O)nc(N)[nH]c54)C[C@@H]3OCOC[C@H]3O[C@@H](n4cnc5c(=O)[nH]c(=N)[nH]c54)C[C@@H]3OP(=O)(O)OC[C@H]3O[C@@H](n4cc(C)c(=O)[nH]c4=O)C[C@@H]3OP(=O)(O)OC[C@H]3O[C@@H](n4cnc5c(O)nc(=N)[nH]c54)C[C@@H]3OP(=O)(O)OC[C@H]3O[C@@H](n4cc(C)c(=O)[nH]c4=O)C[C@@H]3OP(=O)(O)OC[C@H]3O[C@@H](n4cnc5c(=O)nc(N)[nH]c54)C[C@@H]3OP(=O)(O)OC[C@H]3O[C@@H](n4cnc5c(=O)[nH]c(=N)[nH]c54)C[C@@H]3OP(=O)(O)OC[C@H]3O[C@@H](n4cc(C)c(=O)[nH]c4=O)C[C@@H]3OP(=O)(O)OC[C@H]3O[C@@H](n4cc(C)c(=O)[nH]c4=O)C[C@@H]3OP(=O)(O)OC[C@H]3O[C@@H](n4cnc5c(=O)[nH]c(=N)[nH]c54)C[C@@H]3OP(=O)(O)OC[C@H]3O[C@@H](n4cnc5c(=O)nc(N)[nH]c54)C[C@@H]3O)[C@@H](COP(=O)(O)O[C@H]3C[C@H](n4cc(C)c(=O)[nH]c4=O)O[C@@H]3COP(=O)(O)O[C@H]3C[C@H](n4cnc5c(=O)nc(N)[nH]c54)O[C@@H]3COCO[C@H]3C[C@H](n4cnc5c(=O)[nH]c(=N)[nH]c54)O[C@@H]3COP(=O)(O)O)O2)c(=O)[nH]c1=O` reads 0.6.
Compound `Cc1cn([C@H]2C[C@H](OCOC[C@H]3O[C@@H](n4cc(C)c(=O)[nH]c4=O)C[C@@H]3OP(=O)(O)OC[C@H]3O[C@@H](n4cnc5c(=O)nc(N)[nH]c54)C[C@@H]3OP(=O)(O)OC[C@H]3O[C@@H](n4cnc5c(=O)[nH]c(=N)[nH]c54)C[C@@H]3OP(=O)(O)OC[C@H]3O[C@@H](n4cc(C)c(=O)[nH]c4=O)C[C@@H]3OP(=O)(O)OC[C@H]3O[C@@H](n4cnc5c(=O)[nH]c(=N)[nH]c54)C[C@@H]3OP(=O)(O)OC[C@H]3O[C@@H](n4cc(C)c(=O)[nH]c4=O)C[C@@H]3OP(=O)(O)OC[C@H]3O[C@@H](n4cnc5c(=O)nc(N)[nH]c54)C[C@@H]3OP(=O)(O)OC[C@H]3O[C@@H](n4cnc5c(=O)[nH]c(=N)[nH]c54)C[C@@H]3OP(=O)(O)OC[C@H]3O[C@@H](n4cc(C)c(=O)[nH]c4=O)C[C@@H]3OCOC[C@H]3O[C@@H](n4cc(C)c(=O)[nH]c4=O)C[C@@H]3OP(=O)(O)OC[C@H]3O[C@@H](n4cnc5c(=O)[nH]c(=N)[nH]c54)C[C@@H]3OP(=O)(O)OC[C@H]3O[C@@H](n4cnc5c(=O)nc(N)[nH]c54)C[C@@H]3O)[C@@H](COP(=O)(O)O[C@H]3C[C@H](n4cnc5c(=O)[nH]c(=N)[nH]c54)O[C@@H]3COP(=O)(O)O[C@H]3C[C@H](n4cnc5c(=O)nc(N)[nH]c54)O[C@@H]3COP(=O)(O)O)O2)c(=O)[nH]c1=O` displayed a Relative PT of 1.1.
Next, `Cc1cn([C@H]2C[C@H](OCOC[C@H]3O[C@@H](n4cc(C)c(=O)[nH]c4=O)C[C@@H]3OP(=O)(O)OC[C@H]3O[C@@H](n4cnc5c(=O)nc(N)[nH]c54)C[C@@H]3OP(=O)(O)OC[C@H]3O[C@@H](n4cnc5c(=O)[nH]c(=N)[nH]c54)C[C@@H]3OP(=O)(O)OC[C@H]3O[C@@H](n4cc(C)c(=O)[nH]c4=O)C[C@@H]3OP(=O)(O)OC[C@H]3O[C@@H](n4cnc5c(=O)nc(N)[nH]c54)C[C@@H]3OP(=O)(O)OC[C@H]3O[C@@H](n4cc(C)c(=O)[nH]c4=O)C[C@@H]3OP(=O)(O)OC[C@H]3O[C@@H](n4cnc5c(=O)nc(N)[nH]c54)C[C@@H]3OP(=O)(O)OC[C@H]3O[C@@H](n4cnc5c(=O)[nH]c(=N)[nH]c54)C[C@@H]3OP(=O)(O)OC[C@H]3O[C@@H](n4cc(C)c(=O)[nH]c4=O)C[C@@H]3OP(=O)(O)OC[C@H]3O[C@@H](n4cc(C)c(=O)[nH]c4=O)C[C@@H]3OP(=O)(O)OC[C@H]3O[C@@H](n4cnc5c(=O)[nH]c(=N)[nH]c54)C[C@@H]3OP(=O)(O)OC[C@H]3O[C@@H](n4cnc5c(=O)nc(N)[nH]c54)C[C@@H]3O)[C@@H](COP(=O)(O)O[C@H]3C[C@H](n4cnc5c(=O)[nH]c(=N)[nH]c54)O[C@@H]3COP(=O)(O)O[C@H]3C[C@H](n4cnc5c(=O)nc(N)[nH]c54)O[C@@H]3COP(=O)(O)O)O2)c(=O)[nH]c1=O`: 1.1; `Cc1cn([C@H]2C[C@H](OP(=O)(O)OC[C@H]3O[C@@H](n4cc(C)c(=O)[nH]c4=O)C[C@@H]3OP(=O)(O)OC[C@H]3O[C@@H](n4cnc5c(=O)nc(N)[nH]c54)C[C@@H]3OP(=O)(O)OC[C@H]3O[C@@H](n4cnc5c(=O)[nH]c(=N)[nH]c54)C[C@@H]3OP(=O)(O)OC[C@H]3O[C@@H](n4cc(C)c(=O)[nH]c4=O)C[C@@H]3OP(=O)(O)OC[C@H]3O[C@@H](n4cnc5c(=O)[nH]c(=N)[nH]c54)C[C@@H]3OP(=O)(O)OC[C@H]3O[C@@H](n4cc(C)c(=O)[nH]c4=O)C[C@@H]3OP(=O)(O)OC[C@H]3O[C@@H](n4cnc5c(=O)nc(N)[nH]c54)C[C@@H]3OP(=O)(O)OC[C@H]3O[C@@H](n4cnc5c(=O)[nH]c(=N)[nH]c54)C[C@@H]3OP(=O)(O)OC[C@H]3O[C@@H](n4cc(C)c(=O)[nH]c4=O)C[C@@H]3OP(=O)(O)OC[C@H]3O[C@@H](n4cc(C)c(=O)[nH]c4=O)C[C@@H]3OP(=O)(O)OC[C@H]3O[C@@H](n4cnc5c(=O)[nH]c(=N)[nH]c54)C[C@@H]3OP(=O)(O)OC[C@H]3O[C@@H](n4cnc5c(=O)nc(N)[nH]c54)C[C@@H]3O)[C@@H](COCO[C@H]3C[C@H](n4cnc5c(=O)nc(N)[nH]c54)O[C@@H]3COP(=O)(O)O[C@H]3C[C@H](n4cnc5c(=O)nc(N)[nH]c54)O[C@@H]3COP(=O)(O)O)O2)c(=O)[nH]c1=O`: 0.9; `Cc1cn([C@H]2C[C@H](OP(=O)(O)OC[C@H]3O[C@@H](n4cnc5c(=O)nc(N)[nH]c54)C[C@@H]3OP(=O)(O)OC[C@H]3O[C@@H](n4cnc5c(=O)[nH]c(=N)[nH]c54)C[C@@H]3OP(=O)(O)OC[C@H]3O[C@@H](n4cc(C)c(=O)[nH]c4=O)C[C@@H]3OP(=O)(O)OC[C@H]3O[C@@H](n4cnc5c(=O)nc(N)[nH]c54)C[C@@H]3OP(=O)(O)OC[C@H]3O[C@@H](n4cc(C)c(=O)[nH]c4=O)C[C@@H]3OP(=O)(O)OC[C@H]3O[C@@H](n4cnc5c(=O)nc(N)[nH]c54)C[C@@H]3OP(=O)(O)OC[C@H]3O[C@@H](n4cnc5c(=O)[nH]c(=N)[nH]c54)C[C@@H]3OP(=O)(O)OC[C@H]3O[C@@H](n4cc(C)c(=O)[nH]c4=O)C[C@@H]3OP(=O)(O)OC[C@H]3O[C@@H](n4cc(C)c(=O)[nH]c4=O)C[C@@H]3OP(=O)(O)OC[C@H]3O[C@@H](n4cnc5c(=O)[nH]c(=N)[nH]c54)C[C@@H]3OP(=O)(O)OC[C@H]3O[C@@H](n4cnc5c(=O)nc(N)[nH]c54)C[C@@H]3O)[C@@H](COP(=O)(O)O[C@H]3C[C@H](n4cc(C)c(=O)[nH]c4=O)O[C@@H]3COP(=O)(O)O[C@H]3C[C@H](n4cnc5c(=O)[nH]c(=N)[nH]c54)O[C@@H]3COCO[C@H]3C[C@H](n4cnc5c(=O)nc(N)[nH]c54)O[C@@H]3COP(=O)(O)O)O2)c(=O)[nH]c1=O`: 0.9.
